ChEMBL document CHEMBL1201861, “Genomics of Drug Sensitity in Cancer screening data, Wellcome Trust Sanger Institute”

Legend:
Assay in all cases: cells
Assay type in all cases: functional, cell-based, Homo sapiens
[1] = system: COLO-800;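 note: growth inhibition of COLO-800 cells, read out with a cell viability assay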
Description: SANGER: Inhibition of human COLO-800 cell growth in a cell viability assay.

[2] = system: COLO-829
Description: SANGER: Inhibition of human COLO-829 cell growth in a cell viability assay.

[3] = system: CTB-1
Description: SANGER: Inhibition of human CTB-1 cell growth in a cell viability assay.

[4] = system: D-247MG
Description: SANGER: Inhibition of human D-247MG cell growth in a cell viability assay.

[5] = system: DOHH-2;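 note: growth inhibition of human DOHH-2 cells, read out with a cell viability assay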
Description: SANGER: Inhibition of human DOHH-2 cell growth in a cell viability assay.

[6] = system: EC-GI-10
Description: SANGER: Inhibition of human EC-GI-10 cell growth in a cell viability assay.

[7] = system: ES1;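 note: growth inhibition of ES1 cells, read out with a cell viability assay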
Description: SANGER: Inhibition of human ES1 cell growth in a cell viability assay.

[8] = system: ES4;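 note: growth inhibition of human ES4 cells, read out by a cell viability assay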
Description: SANGER: Inhibition of human ES4 cell growth in a cell viability assay.

[9] = system: ETK-1;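 note: growth inhibition of human ETK-1 cells, read out with a cell viability assay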
Description: SANGER: Inhibition of human ETK-1 cell growth in a cell viability assay.

[10] = system: GAK;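 note: cell growth inhibition read out by a cell viability assay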
Description: SANGER: Inhibition of human GAK cell growth in a cell viability assay.

[11] = system: HL-60;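 note: growth inhibition of human HL-60 cells, read out with a cell viability assay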
Description: SANGER: Inhibition of human HL-60 cell growth in a cell viability assay.

[12] = system: HT
Description: SANGER: Inhibition of human HT cell growth in a cell viability assay.

[13] = system: JVM-2;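 note: growth inhibition of JVM-2 cells determined by a cell viability assay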
Description: SANGER: Inhibition of human JVM-2 cell growth in a cell viability assay.

[14] = system: KLE;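 note: growth inhibition of human KLE cells, read out with a cell viability assay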
Description: SANGER: Inhibition of human KLE cell growth in a cell viability assay.

[15] = system: L-363
Description: SANGER: Inhibition of human L-363 cell growth in a cell viability assay.

[16] = system: LB1047-RCC;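 note: inhibition of cell growth, determined with a cell viability assay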
Description: SANGER: Inhibition of human LB1047-RCC cell growth in a cell viability assay.

[17] = system: LS-123
Description: SANGER: Inhibition of human LS-123 cell growth in a cell viability assay.

[18] = system: MMAC-SF;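 note: growth inhibition of human MMAC-SF cells, read out with a cell viability assay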
Description: SANGER: Inhibition of human MMAC-SF cell growth in a cell viability assay.

[19] = system: MN-60;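 note: growth inhibition of the MN-60 cell line, determined with a cell viability assay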
Description: SANGER: Inhibition of human MN-60 cell growth in a cell viability assay.

[20] = system: MZ1-PC;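 note: cell viability assay measuring growth inhibition of human MZ1-PC cells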
Description: SANGER: Inhibition of human MZ1-PC cell growth in a cell viability assay.

[21] = system: NB12;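 note: growth inhibition of human NB12 cells, read out by a cell viability assay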
Description: SANGER: Inhibition of human NB12 cell growth in a cell viability assay.

[22] = system: NB5;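 note: growth inhibition of NB5 cells, read out as cell viability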
Description: SANGER: Inhibition of human NB5 cell growth in a cell viability assay.

[23] = system: NB6;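 note: growth inhibition of NB6 cells, read out by a cell viability assay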
Description: SANGER: Inhibition of human NB6 cell growth in a cell viability assay.

[24] = system: NCI-H1092;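 note: cell growth inhibition measured with a cell viability assay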
Description: SANGER: Inhibition of human NCI-H1092 cell growth in a cell viability assay.

[25] = system: NCI-H1155;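 note: cell growth inhibition measured by a viability assay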
Description: SANGER: Inhibition of human NCI-H1155 cell growth in a cell viability assay.

[26] = system: NCI-H1299;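 note: growth inhibition of human NCI-H1299 cells, read out by a cell viability assay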
Description: SANGER: Inhibition of human NCI-H1299 cell growth in a cell viability assay.

[27] = system: NCI-H1581;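 note: cell growth inhibition read out by a viability assay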
Description: SANGER: Inhibition of human NCI-H1581 cell growth in a cell viability assay.

[28] = system: NCI-H209;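 note: growth inhibition of human NCI-H209 cells, measured by a cell viability assay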
Description: SANGER: Inhibition of human NCI-H209 cell growth in a cell viability assay.

[29] = system: NCI-H69;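 note: growth inhibition of the cell line, read out with a cell viability assay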
Description: SANGER: Inhibition of human NCI-H69 cell growth in a cell viability assay.

[30] = system: NH-12;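 note: growth inhibition of NH-12 cells, read out with a cell viability assay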
Description: SANGER: Inhibition of human NH-12 cell growth in a cell viability assay.

[31] = system: NMC-G1;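 note: growth inhibition of the NMC-G1 cell line, measured with a cell viability read-out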
Description: SANGER: Inhibition of human NMC-G1 cell growth in a cell viability assay.

[32] = system: RPMI-8866
Description: SANGER: Inhibition of human RPMI-8866 cell growth in a cell viability assay.

[33] = system: RXF 393;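 note: growth inhibition of human RXF 393 cells, read out with a cell viability assay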
Description: SANGER: Inhibition of human RXF393 cell growth in a cell viability assay.

[34] = system: SBC-1;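 note: cell viability assay measuring growth inhibition of the SBC-1 cell line, IC50 being the concentration that halves growth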
Description: SANGER: Inhibition of human SBC-1 cell growth in a cell viability assay.

[35] = system: SF-268;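 note: growth inhibition of SF-268 cells determined with a cell viability assay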
Description: SANGER: Inhibition of human SF268 cell growth in a cell viability assay.

[36] = system: SK-MEL-1;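 note: growth inhibition of human SK-MEL-1 cells, read out by a cell viability assay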
Description: SANGER: Inhibition of human SK-MEL-1 cell growth in a cell viability assay.

[37] = system: SW684;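 note: growth inhibition of human SW684 cells, measured by a cell viability assay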
Description: SANGER: Inhibition of human SW684 cell growth in a cell viability assay.

[38] = system: BV-173
Description: SANGER: Inhibition of human BV-173 cell growth in a cell viability assay.

[39] = system: C8166;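 note: growth inhibition of human C8166 cells measured by a cell viability assay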
Description: SANGER: Inhibition of human C8166 cell growth in a cell viability assay.

[40] = system: TE-10;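 note: growth inhibition of TE-10 cells, measured by a cell viability assay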
Description: SANGER: Inhibition of human TE-10 cell growth in a cell viability assay.

[41] = system: TE-5;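 note: inhibition of cell growth, read out by a cell viability assay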
Description: SANGER: Inhibition of human TE-5 cell growth in a cell viability assay.

[42] = system: TE-9;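 note: cell growth inhibition, measured with a cell viability readout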
Description: SANGER: Inhibition of human TE-9 cell growth in a cell viability assay.

[43] = system: TK-10;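 note: growth inhibition of TK-10 cells, read out in a cell viability assay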
Description: SANGER: Inhibition of human TK10 cell growth in a cell viability assay.

[44] = system: UACC-257
Description: SANGER: Inhibition of human UACC-257 cell growth in a cell viability assay.

[45] = system: VA-ES-BJ;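 note: growth inhibition of the VA-ES-BJ cell line, read out by a cell viability assay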
Description: SANGER: Inhibition of human VA-ES-BJ cell growth in a cell viability assay.

[46] = system: no-11;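 note: growth inhibition of human NO-11 cells, read out with a cell viability assay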
Description: SANGER: Inhibition of human no-11 cell growth in a cell viability assay.

[47] = system: COLO-320-HSR;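 note: growth inhibition of COLO-320-HSR cells, determined with a cell viability assay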
Description: SANGER: Inhibition of human COLO-320-HSR cell growth in a cell viability assay.

CO[C@H]1C[C@@H]2CC[C@@H](C)[C@@](O)(O2)C(=O)C(=O)N2CCCC[C@H]2C(=O)O[C@H]([C@H](C)C[C@@H]2CC[C@@H](OC(=O)C(C)(CO)CO)[C@H](OC)C2)CC(=O)[C@H](C)/C=C(\C)[C@@H](O)[C@@H](OC)C(=O)[C@H](C)C[C@H](C)/C=C/C=C/C=C/1C [TEMSIROLIMUS] was tested, and the IC50 ([1]; Homo sapiens, COLO-800) was 0.129 µM, the IC50 ([2]; Homo sapiens, COLO-829) was over 0.2 µM and the IC50 ([3]; Homo sapiens, CTB-1) was 0.00293 µM. It also gave an IC50 ([4]; Homo sapiens, D-247MG) of over 0.2 µM, an IC50 ([5]; Homo sapiens, DOHH-2) of 0.0168 µM and an IC50 ([6]; Homo sapiens, EC-GI-10) of over 0.2 µM. It also gave an IC50 ([7]; Homo sapiens, ES1) of 0.0245 µM, an IC50 ([8]; Homo sapiens, ES4) of 0.0378 µM and an IC50 ([9]; Homo sapiens, ETK-1) of 0.0318 µM. The IC50 ([10]; Homo sapiens, GAK) was over 0.2 µM, the IC50 ([11]; Homo sapiens, HL-60) was over 0.2 µM and the IC50 ([12]; Homo sapiens, HT) was 0.0276 µM. The IC50 ([13]; Homo sapiens, JVM-2) was over 0.2 µM, the IC50 ([14]; Homo sapiens, KLE) was over 0.2 µM and the IC50 ([15]; Homo sapiens, L-363) was 0.000242 µM. For the same compound, the IC50 ([16]; Homo sapiens, LB1047-RCC) was 0.0631 µM, the IC50 ([17]; Homo sapiens, LS-123) was over 0.2 µM and the IC50 ([18]; Homo sapiens, MMAC-SF) was over 0.2 µM. It also gave an IC50 ([19]; Homo sapiens, MN-60) of 0.0193 µM, an IC50 ([20]; Homo sapiens, MZ1-PC) of over 0.2 µM and an IC50 ([21]; Homo sapiens, NB12) of over 0.2 µM. The IC50 ([22]; Homo sapiens, NB5) was 0.111 µM, the IC50 ([23]; Homo sapiens, NB6) was over 0.2 µM and the IC50 ([24]; Homo sapiens, NCI-H1092) was over 0.2 µM. It also gave an IC50 ([25]; Homo sapiens, NCI-H1155) of 0.0636 µM, an IC50 ([26]; Homo sapiens, NCI-H1299) of 0.186 µM and an IC50 ([27]; Homo sapiens, NCI-H1581) of over 0.2 µM. The IC50 ([28]; Homo sapiens, NCI-H209) was 0.153 µM, the IC50 ([29]; Homo sapiens, NCI-H69) was over 0.2 µM and the IC50 ([30]; Homo sapiens, NH-12) was over 0.2 µM. It also gave an IC50 ([31]; Homo sapiens, NMC-G1) of over 0.2 µM, an IC50 ([32]; Homo sapiens, RPMI-8866) of 0.0314 µM and an IC50 ([33]; Homo sapiens, RXF 393) of 0.0157 µM. It also gave an IC50 ([34]; Homo sapiens, SBC-1) of 0.000444 µM, an IC50 ([35]; Homo sapiens, SF-268) of over 0.2 µM and an IC50 ([36]; Homo sapiens, SK-MEL-1) of over 0.2 µM. It also gave an IC50 ([37]; Homo sapiens, SW684) of over 0.2 µM, an IC50 ([38]; Homo sapiens, BV-173) of 0.0438 µM and an IC50 ([39]; Homo sapiens, C8166) of over 0.2 µM. For the same compound, the IC50 ([40]; Homo sapiens, TE-10) was over 0.2 µM, the IC50 ([41]; Homo sapiens, TE-5) was over 0.2 µM and the IC50 ([42]; Homo sapiens, TE-9) was over 0.2 µM. The IC50 ([43]; Homo sapiens, TK-10) was over 0.2 µM, the IC50 ([44]; Homo sapiens, UACC-257) was over 0.2 µM and the IC50 ([45]; Homo sapiens, VA-ES-BJ) was 0.0059 µM. The IC50 ([46]; Homo sapiens) was over 0.2 µM and the IC50 ([47]; Homo sapiens, COLO-320-HSR) was over 0.2 µM.
Compound CS(=O)(=O)c1ccc(C(=O)Nc2ccc(Cl)c(-c3ccccn3)c2)c(Cl)c1 [VISMODEGIB] has an IC50 ([1]; Homo sapiens, COLO-800) of over 10 µM, an IC50 ([2]; Homo sapiens, COLO-829) of over 10 µM and an IC50 ([3]; Homo sapiens, CTB-1) of over 10 µM. For the same compound, the IC50 ([4]; Homo sapiens, D-247MG) was over 10 µM, the IC50 ([5]; Homo sapiens, DOHH-2) was over 10 µM and the IC50 ([6]; Homo sapiens, EC-GI-10) was over 10 µM. The IC50 ([7]; Homo sapiens, ES1) was over 10 µM, the IC50 ([8]; Homo sapiens, ES4) was over 10 µM and the IC50 ([9]; Homo sapiens, ETK-1) was over 10 µM. The IC50 ([10]; Homo sapiens, GAK) was over 10 µM, the IC50 ([11]; Homo sapiens, HL-60) was over 10 µM and the IC50 ([12]; Homo sapiens, HT) was over 10 µM. It also gave an IC50 ([13]; Homo sapiens, JVM-2) of over 10 µM, an IC50 ([14]; Homo sapiens, KLE) of over 10 µM and an IC50 ([15]; Homo sapiens, L-363) of over 10 µM. The IC50 ([16]; Homo sapiens, LB1047-RCC) was over 10 µM, the IC50 ([17]; Homo sapiens, LS-123) was over 10 µM and the IC50 ([18]; Homo sapiens, MMAC-SF) was over 10 µM. For the same compound, the IC50 ([19]; Homo sapiens, MN-60) was over 10 µM, the IC50 ([20]; Homo sapiens, MZ1-PC) was over 10 µM and the IC50 ([21]; Homo sapiens, NB12) was over 10 µM. For the same compound, the IC50 ([22]; Homo sapiens, NB5) was over 10 µM, the IC50 ([23]; Homo sapiens, NB6) was over 10 µM and the IC50 ([24]; Homo sapiens, NCI-H1092) was over 10 µM. For the same compound, the IC50 ([25]; Homo sapiens, NCI-H1155) was over 10 µM, the IC50 ([26]; Homo sapiens, NCI-H1299) was over 10 µM and the IC50 ([27]; Homo sapiens, NCI-H1581) was over 10 µM. It also gave an IC50 ([28]; Homo sapiens, NCI-H209) of over 10 µM, an IC50 ([30]; Homo sapiens, NH-12) of over 10 µM and an IC50 ([31]; Homo sapiens, NMC-G1) of over 10 µM. For the same compound, the IC50 ([32]; Homo sapiens, RPMI-8866) was over 10 µM, the IC50 ([33]; Homo sapiens, RXF 393) was over 10 µM and the IC50 ([34]; Homo sapiens, SBC-1) was over 10 µM. The IC50 ([35]; Homo sapiens, SF-268) was over 10 µM, the IC50 ([36]; Homo sapiens, SK-MEL-1) was over 10 µM and the IC50 ([37]; Homo sapiens, SW684) was over 10 µM. It also gave an IC50 ([38]; Homo sapiens, BV-173) of over 10 µM, an IC50 ([39]; Homo sapiens, C8166) of over 10 µM and an IC50 ([40]; Homo sapiens, TE-10) of over 10 µM. The IC50 ([41]; Homo sapiens, TE-5) was over 10 µM, the IC50 ([42]; Homo sapiens, TE-9) was over 10 µM and the IC50 ([43]; Homo sapiens, TK-10) was over 10 µM. For the same compound, the IC50 ([44]; Homo sapiens, UACC-257) was over 10 µM, the IC50 ([45]; Homo sapiens, VA-ES-BJ) was over 10 µM and the IC50 ([46]; Homo sapiens) was over 10 µM. The IC50 ([47]; Homo sapiens, COLO-320-HSR) was over 10 µM.
CISPLATIN was tested, and the IC50 ([1]; colo-800) was 20.1 µM, the IC50 ([2]; colo-829) was 7.27 µM and the IC50 ([3]; ctb-1) was 2.3 µM. The IC50 ([4]; d-247mg) was 10.8 µM, the IC50 ([5]; dohh-2) was 4.23 µM and the IC50 ([6]; ec-gi-10) was 13.2 µM. The IC50 ([7]; es1) was 1.02 µM, the IC50 ([8]; es4) was 1.6 µM and the IC50 ([9]; etk-1) was 49.8 µM. The IC50 ([10]; gak) was 490 µM, the IC50 ([11]; hl-60) was 8.69 µM and the IC50 ([12]; ht) was 252 µM. It also gave an IC50 ([13]; jvm-2) of 568 µM, an IC50 ([14]; kle) of 137 µM and an IC50 ([15]; l-363) of 4.01 µM. It also gave an IC50 ([16]; lb1047-rcc) of 5.89 µM, an IC50 ([17]; ls-123) of 491 µM and an IC50 ([18]; mmac-sf) of 531 µM. It also gave an IC50 ([19]; mn-60) of 58.4 µM, an IC50 ([20]; mz1-pc) of 29.9 µM and an IC50 ([21]; nb12) of 166 µM. The IC50 ([22]; nb5) was 5.48 µM, the IC50 ([23]; nb6) was 318 µM and the IC50 ([24]; nci-h1092) was 15.4 µM. For the same compound, the IC50 ([25]; nci-h1155) was 22.7 µM, the IC50 ([26]; nci-h1299) was 26.8 µM and the IC50 ([27]; nci-h1581) was 12.2 µM. The IC50 ([28]; nci-h209) was 0.537 µM, the IC50 ([29]; nci-h69) was 231 µM and the IC50 ([30]; nh-12) was 13.2 µM. The IC50 ([31]; nmc-g1) was 14.5 µM, the IC50 ([32]; rpmi-8866) was 13.2 µM and the IC50 ([33]; rxf 393) was 7.86 µM. It also gave an IC50 ([34]; sbc-1) of 141 µM, an IC50 ([35]; sf-268) of 5.12 µM and an IC50 ([36]; sk-mel-1) of 14.7 µM. For the same compound, the IC50 ([37]; sw684) was 590 µM, the IC50 ([38]; bv-173) was 42.1 µM and the IC50 ([39]; c8166) was 208 µM. The IC50 ([40]; te-10) was 158 µM, the IC50 ([41]; te-5) was 211 µM and the IC50 ([42]; te-9) was 15.4 µM. It also gave an IC50 ([43]; tk-10) of 31 µM, an IC50 ([44]; uacc-257) of 108 µM and an IC50 ([45]; va-es-bj) of 2.45 µM. It also gave an IC50 [46] of 15.6 µM and an IC50 ([47]; colo-320-hsr) of 338 µM.
